Bridges are numbered along the chain shown (N, C = ends). Where no end group is shown, it is not given here.
Key:
[1] = tested on: human soluble protein kinase VEGFR-3 (sVEGFR-3); assay: VEGFR-3 kinase assay ([32P]ATP, poly(Glu:Tyr); Eurofins Panlabs); format: biochemical; settings: peptides screened at 10 μM, 0.1 μg/ml enzyme, HEPES pH 7.4, 15 min preincubation 37°C, 10 μM ATP, [γ32P]ATP, 30 min, Figure 1B
Procedure: Kinase assays were performed as previously described. Briefly, human soluble protein kinase VEGFR-3 (sVEGFR-3) that was expressed in insect cells was used for the kinase assays. The candidate peptides were preincubated with 0.1 μg/ml of enzyme in modified HEPES buffer pH 7.4 for 15 minutes at 37°C. The reaction was initiated by addition of 0.2 mg/ml poly(Glu:Tyr), 10 μM ATP and 0.25 μCi [γ^32P]ATP for another 30 minute incubation period and terminated by further addition of 3% H3PO4. Aliquots were removed and counted to determine the amount of [^32P] Poly(Glu:Tyr) that formed. Compounds were screened at 10 μM. All peptides were analyzed by Eurofins Panlabs Taiwan Ltd.

sVEGFR-3 = assay: Competition assay of synthesized peptides with rhVEGF-C for binding to plate-bound sVEGFR-3 (ELISA); design: species or system human; settings: sVEGFR-3 250 ng/mL coated; peptide 6 h RT, then rhVEGF-C 300 ng/mL 6 h; ELISA A450/650; mean of three independent experiments; Figure 1A
Procedure: Soluble VEGFR-3 (sVEGFR-3) (250 ng/mL) (Angio-Proteomie, Boston, MA) was immobilized on 96-well plates and blocked with phosphate buffer containing 1% BSA for 1 hour at room temperature. In competition experiments, peptides were incubated with the VEGFR-3-coated plates for 6 hours at room temperature. After incubation, human recombinant VEGF-C protein (rhVEGF-C, 300 ng/mL, 100 μL) was added directly to the wells without removal of the peptides and then incubated at room temperature for 6 hours. The plates were thoroughly washed with 0.1% BSA/PBS buffer (pH 8.5), and anti–VEGF-C Ab was added at 4°C for 24 hours. Biotin-conjugated goat anti-rabbit IgG antibody was added for 1 hour. HRP-conjugated streptavidin was then added for 30 minutes. The free streptavidin conjugate was washed away and freshly prepared substrate solution (TMB) was then added to each well. The reaction was allowed to stand for 15 minutes, and the color development was stopped by the addition of H3PO4 (1.0 mol/L). The absorbance at 450 nm was read with a reference wavelength of 650 nm (A450/650).

A549 cells [2] = assay: VEGF-C-induced drug resistance (Taxol, cisplatin), DNA flow cytometric and trypan blue exclusion assays; format: cell-based, human; settings: A549, rhVEGF-C, 20 nM Taxol or 10μM cisplatin 48 hours; flow cytometry (PI) and trypan blue exclusion; Figure 3E-3H
Procedure: Briefly, cells were treated with 20 nM Taxol or 10μM cisplatin and incubated for 48 hours. Samples were prepared and analyzed as previously described.
Briefly, cells were harvested using trypsin and stained with 0.4% trypan blue dye (Sigma-Aldrich). Trypan blue-positive and -negative cells were counted using a hemacytometer (Hausser Scientific, Horsham, PA) under a phase-contrast microscope (Fisher Scientific, Pittsburgh, PA). The results of each assay were expressed in terms of the percentage of dead cells relative to the total number of cells. Individual experiments were performed in triplicate.

Src = assay: Western blot of Src phosphorylation (VEGFR-3-mediated signaling pathway); format: cell-based, human; settings: A549 and 293T/VEGFR-3 cells, rhVEGF-C, Figure 2A, 2B
Procedure: (§1) Cells were incubated in serum-free DMEM/F12 for 24 hours before treatment with or without rhVEGF-C (100 ng/mL). Cells were lysed in RIPA buffer [Tris-HCl (50 mM; pH 7.5), NaCl (120 mM), NP-40 (0.5%), Na3VO4 (200 mM), EDTA (100 mM), sodium deoxycholate (0.5%), SDS (1%)] for 10 minutes on ice. An equal quantity of protein from the cell lysates was resuspended in gel sample buffer, resolved by 10% SDS-PAGE, and transferred to polyvinylidene difluoride membrane membranes (Millipore Corp., Milford, MA). After blocking, membranes were incubated with specific primary antibodies and corresponding secondary antibodies. Immunoreaction signals were visualized by an enhanced chemiluminescence detection system (PerkinElmer Health Sciences, Waltham MA).

[3] = tested on: various cancer cell lines (MDA-MB-231, BT474, HS578T, HBL100, MDA-MB-361, MCF-7, CL1-5, H460, H322); assay: VEGF-C-induced VEGFR-3 phosphorylation, migration and invasion in various cancer cell lines; format: cell-based, human; settings: various breast and lung cancer cell lines; Figure 4B-4E, Figure S4
Procedure: as §1
Boyden chamber cell migration assays were performed using uncoated transwells and matrigel-coated transwells with membranes (8 μm pore-size) (Becton Dickinson, Mountain View, CA). The chambers were inserted into 24-well culture plates that contained DMEM/F12 with 10% fetal bovine serum. The cells were pretreated with peptide (100 μM) in serum-free DMEM/F12 medium and were loaded into the transwells. […] The migrated cells were quantified by blind counting of the migrated cells on the lower surface of the membrane from at least 10 fields per chamber using a 20X objective. […]

VEGFR-3 [4] = assay: KIRA-ELISA of tyr-phosphorylated VEGFR-3 in VEGF-C-treated H928 lung cancer cells; format: cell-based, human; settings: serum-starved, peptide 30 min then rhVEGF-C 15 min, Figure 1C
Procedure: H928 lung cancer cells (2×10^5) were cultured in 24-well plates and serum-starved for 24 hours. Cells were pretreated with candidate peptide for 30 minutes and then treated with rhVEGF-C for 15 minutes. Cells were solubilized in RIPA lysis buffer for 60 minutes. Another 85 μl of cell lysate was transferred to an ELISA well that was coated with VEGFR-3 and incubated for 2 hours. After the plates were washed, biotinylated-4G10 antibody (500 ng/ml, 100 μl) was added and incubated for 2 hours. After the plates were washed, HRP-conjugated streptavidin was then added for 30 minutes. The free avidin conjugate was washed away and freshly prepared substrate solution (TMB) was then added to each well. The reactions were allowed to proceed for 10 minutes, and the color development was stopped by the addition of H3PO4 (1.0 mol/L). The absorbance at 450 nm was read with a reference wavelength of 650 nm (A450/650).

A549 cells [5] = assay: Sphere-forming assay (tumor initiating cells), A549; format: cell-based, human; settings: peptide 200 μM, rhVEGF-C 200 ng/mL, 10 days non-adherent, Figure S5A
Procedure: (§2) A549 and MCF-7 cells were serum-starved for 24 hours. The cells were pretreated with candidate peptides (200 μM) in the presence or absence of rhVEGF-C for 24 hours. The cells were trypsinized and mechanically dissociated to generate single cells that were then seeded at a density of 1×10^3 cells/ml in serum-free DMEM/F12 medium (Invitrogen, Carlsbad, CA) that was freshly supplemented with epidermal growth factor (20 ng/ml), basic fibroblast growth factor (20 ng/ml) (R&D Systems, Minneapolis, MN), 1X B27 supplement, 1X N2 supplement (Invitrogen, Carlsbad, CA) in the presence or absence of rhVEGF-C (200 ng/mL) and candidate peptides (200 μM) in non-adherent plates for 10 days. Quantification of sphere formation was determined by measuring the percentage of 5000 spheres.

SOX2 = SOX2 expression by reverse transcription PCR in A549 spheres; format: cell-based, human; settings: A549 spheres grown 10 days; Figure S6
Procedure: Total RNA was isolated after A549 spheres had grown for 10 days by using Trizol (Invitrogen, Carlsbad, CA), and cDNA were synthesized with Oligo dT (Thermo Scientific, Brookfield, WI). The specific primers for SOX2 were 5'-TACAACATGATGGAGACG-3' and 5'-[…]-3'. The reaction was cycled at 95°C for 40 seconds, then 56°C for 40 seconds, and then 72°C for 30 seconds for 30 cycles followed by a final extension of 72°C for 5 minutes.

[6] = tested on: MDA-MB-231 breast cancer cells; assay: Boyden chamber migration/invasion assay, MDA-MB-231; format: cell-based, human; settings: peptide 100 μM, 24 hours, uncoated / matrigel-coated transwells, Figure 3
Procedure: (§3) Boyden chamber cell migration assays were performed using uncoated transwells and matrigel-coated transwells with membranes (8 μm pore-size) (Becton Dickinson, Mountain View, CA). The chambers were inserted into 24-well culture plates that contained DMEM/F12 with 10% fetal bovine serum. The cells were pretreated with peptide (100 μM) in serum-free DMEM/F12 medium and were loaded into the transwells. After 24 hours, non-migrated cells were removed with a cotton swab and the cells were fixed with methanol for 15 min and stained with crystal violet. The migrated cells were quantified by blind counting of the migrated cells on the lower surface of the membrane from at least 10 fields per chamber using a 20X objective. All migration and invasion assays were normalized to the proliferation rate.

VEGFR-3 [7] = assay: Western blot of VEGF-C-induced VEGFR-3 Tyr1063/1068 phosphorylation; format: cell-based, human; settings: A549 and 293T/VEGFR-3 cells, peptides 24 hours, rhVEGF-C, Figure 2A, 2B
Procedure: as §1

A549 lung cancer cells = assay: Boyden chamber migration/invasion assay, A549; format: cell-based, human; settings: peptide 100 μM, 24 hours, uncoated / matrigel-coated transwells, Figure 3
Procedure: as §3

A549 cells [8] = assay: VEGF-C-induced drug resistance (Taxol, cisplatin), MTT assay; format: cell-based, human; settings: A549, peptides 200 μM, rhVEGF-C 100 ng/mL, Taxol or cisplatin; Figure S3
Procedure: A549 lung cancer cells (3×10^3) were cultured in 96-well plates and serum-starved for 24 hours. Cells were treated with the candidate peptides (200 μM) for 4 hours and were treated with rhVEGF-C (100 ng/mL) for 6 hours in serum-free medium. After 48 hours, MTT (5 mg/ml) was added for 3 hours and the precipitates were dissolved in DMSO. The absorbance at 570 nm was read with a reference wavelength of 630 nm (A570/630).

[9] = tested on: MDA-MB-231/VEGF-C lung metastasis; assay: Experimental metastasis assay, MDA-MB-231/VEGF-C cells by tail vein, bioluminescent imaging of lung; format: in vivo; settings: SCID mice, n=8, peptide 8 μg/g body weight i.v., one day before cells then twice weekly for 8 weeks; bioluminescence; control peptide P4; Figure 5
Procedure: All animal work was performed in accordance with protocols that were approved by the Institutional Animal Care and Use Committee of the National Health Research Institutes. All of the animal experiments were performed on 6- to 8-week-old CB-17 severe combined immunodeficient (SCID) female mice (supplied by LASCO, Taiwan) with eight animals per group. The control (P4), P5 and P6 peptides were pretreated with 8 μg/g body weight dissolved in 50 μl PBS and i.v. injected into mice one day before cancer cell injection. For experimental metastasis assays, 2.5 × 10^5 viable cells were resuspended in 0.1 mL of PBS and introduced into the circulation via tail vein injection. For the treatment, peptides were administered (8 μg/g body weight) twice weekly for 8 weeks. The luciferase-based, non-invasive bioluminescent imaging and analysis were performed with the Xenogen IVIS-200 system (Xenogen, Alameda, CA, USA).

[10] = tested on: lymphatic endothelia cells (LECs); assay: VEGF-C-induced VEGFR-3 phosphorylation, migration and proliferation in LECs (western blot, Boyden chamber, MTT); format: cell-based, human; settings: MTT (96 hrs), Figure 4A
MCF-7 cells = assay: Sphere-forming assay (tumor initiating cells), MCF-7; format: cell-based, human; settings: peptide 200 μM, rhVEGF-C 200 ng/mL, 10 days non-adherent, Figure S5B
Procedure: as §2

Sequence | inhibitory effects on VEGFR-3 kinase activity [1] | levels of sVEGFR-3-bound VEGF-C (competition with VEGF-C binding) (sVEGFR-3) | VEGF-C-induced drug resistance (A549 cells [2]) | phospho-Src levels (Src) | VEGF-C-induced VEGFR-3 phosphorylation, cell migration and invasion [3] | inhibitory effects on the phosphorylation of VEGFR-3 (KIRA-ELISA) (VEGFR-3 [4]) | sphere formation enhanced by VEGF-C (number and size of spheres) (A549 cells [5]) | expression of SOX2 (SOX2) | migration and invasion [6] | VEGF-C-induced VEGFR-3 Tyr1063/1068 phosphorylation (VEGFR-3 [7]) | migration and invasion (A549 lung cancer cells) | VEGF-C-induced drug resistance by MTT assay (A549 cells [8]) | VEGF-C-induced lung metastasis [9] | VEGF-C-induced VEGFR-3 phosphorylation, cell migration and proliferation of LECs [10] | sphere formation enhanced by VEGF-C (number and size of spheres) (MCF-7 cells)
CLTSSLRSC (disulfide 1-9 (inferred)) [P8] | 49% |  |  |  |  |  |  |  |  |  |  |  |  |  | 
CNDSHMKLC (disulfide 1-9 (inferred)) [P4, used as control peptide in later assays] |  | reduced the levels of bound VEGF-C in a significant and dose-dependent manner |  |  |  |  |  |  |  |  |  |  |  |  | 
CNYSHLFYC (disulfide 1-9 (inferred)) [P5] | 82% | reduced the levels of bound VEGF-C in a significant and dose-dependent manner | inhibit | decreased phospho-Src levels | significantly inhibited | highest inhibitory effects | decreased the number and size of the spheres | decreased the expression of SOX2 | Obvious decreases | dramatic suppressive effects | Obvious decreases | inhibit | significantly inhibited | abolished | decreased the number and size of the spheres
CYYGQSKYC (disulfide 1-9 (inferred)) [P6] | 72% | reduced the levels of bound VEGF-C in a significant and dose-dependent manner | inhibit | decreased phospho-Src levels | significantly inhibited | highest inhibitory effects |  | decreased the expression of SOX2 | Obvious decreases | dramatic suppressive effects | Obvious decreases | inhibit | significantly inhibited | abolished | 
CYYWQSKYC (disulfide 1-9 (inferred)) [P7] | 69% |  |  |  |  |  |  |  |  |  |  |  |  |  | 

Source: publication PMC4116523, “Novel peptides suppress VEGFR-3 activity and antagonize VEGFR-3-mediated oncogenic effects” (Oncotarget, 2014)
